Assay results as given in patent publication US9278994B2, “Short antimicrobial lipopeptides” (Helix BioMedix Inc., priority 2012, dated 2016).
Converted amounts (≈) assume the structure as drawn. Where a SMILES comes first, the peptide text is derived from it. [ ]: non-standard residue; d: D form. The star is where a group is joined. Stearoyl = CCCCCCCCCCCCCCCCCC(=O)*; Palmitoyl = CCCCCCCCCCCCCCCC(=O)*; Myristoyl = CCCCCCCCCCCCCC(=O)*; Undecanoyl = CCCCCCCCCCC(=O)*; Lauroyl = CCCCCCCCCCCC(=O)*; Decanoyl = CCCCCCCCCC(=O)*; Octanoyl = CCCCCCCC(=O)*

Assays:
P. acnes = assay type: cell-based, Propionibacterium acnes
Procedure: (§1) 2. Bacterial strains and culture conditions. E. coli UB1005, S. aureus SAP0017 (MRSA) and C. albicans 105 were grown in Mueller Hinton (MH) (Difco, BD Biosciences, MD) agar plates and broth (2 g of beef extract, 17.5 g of acid hydrolysis of casein and 1.5 g of starch per liter) at 37° C. unless otherwise indicated. Bacteria from frozen stock were subcultured onto freshly made MH agar plates prior to susceptibility testing. For P. acnes, the bacterium was grown in BBL™ Brain-Heart infusion (Becton, Dickinson & Company, Sparks Md.) broth or agar plates at 37° C. in anaerobic condition generated using a anaerobic jar and AnaeroGen™ (Oxoid, Basingstoke, Hampshire, England).
(§2) 3. […] The minimal inhibitory concentration (MIC) of each peptide was determined using modified CLSI microtiter broth dilution assay (Methods for Dilution Antimicrobial Susceptibility Tests for Bacteria That Grow Aerobically; Approved Standard—Ninth Edition). An inoculum of 10^5-10^6 colony forming units (CFU)/ml was used or 10^4 CFU/ml for yeast. The MIC value was taken as the lowest peptide concentration at which more than 90% of microbial growth was inhibited after 15 to 20 h of incubation at 37° C. For P. acnes, the incubation was kept under anaerobic condition at 37° C. for 2 weeks before MIC was determined Kill kinetics was performed using a given concentration (about 2-5-fold MIC) of peptide mixed with indicator microorganism. After appropriate dilution the cells were plated on agar plates after defined time intervals and incubated at 37° C. overnight. In the case of P. acnes an extended incubation period was required. The CFU was counted and plotted as survival of bacteria after peptide treatment over time, which indicates the effectiveness of a peptide to kill a microbe.

C. albicans 105 = test system: C. albicans 105
Procedure: (§3) We conducted the minimal inhibitory concentration (MIC) determination using CLSI (Clinical and Laboratory standard Institute) recommended standard protocol for antimicrobials (Methods for Dilution Antimicrobial Susceptibility Tests for Bacteria That Grow Aerobically; Approved Standard—Ninth Edition).
as §1, §2

E. coli UB1005 = test system: E. coli UB1005
Procedure: as §3, §1, §2

S. aureus SAP0017 (MRSA) = test system: S. aureus SAP0017 (MRSA)
Procedure: as §3, §1, §2

Structure (SMILES) | MIC P. acnes (P. acnes) [µg/mL] | MIC C. albicans (C. albicans 105) [µg/mL] | MIC E. coli (E. coli UB1005) [µg/mL] | MIC S. aureus (S. aureus SAP0017 (MRSA)) [µg/mL]
CCCCCCCCCCCCCCCC(=O)N[C@@H](CCCCN)C(=O)N[C@@H](Cc1ccc(O)cc1)C(N)=O [HB2247, Pal-KY-NH2] | >2000 | >2000 | >2000 | >2000
CCCCCCCC(=O)N[C@@H](CCCCN)C(=O)N1CCC[C@@H]1C(=O)N[C@H](C(N)=O)[C@@H](C)O [HB2195, Octanoyl-KdPT-NH2] (Octanoyl-Lys-[dP]-Thr-NH2) | >2000 | >2000 | >2000 | >2000
CCCCCCCCCCCCCCC(=O)N[C@@H](CCCCN)C(=O)N1CCC[C@H]1C(=O)N[C@H](C(N)=O)C(C)C [HB2192, Pentadecanoyl-KPV-NH2] | 1 (≈ 0.00177 mM) | 32 (≈ 0.0566 mM) | 64 (≈ 0.113 mM) | 16 (≈ 0.0283 mM)
CCCCCCCCCCCCCCCCCC(=O)N[C@@H](CCCCN)C(=O)N1CCC[C@@H]1C(=O)N[C@H](C(N)=O)[C@@H](C)O [HB2201, Stearoyl-K-dPT-NH2] (Stearoyl-Lys-[dP]-Thr-NH2) | 1 to 2 | 8 (≈ 0.0131 mM) | 128 (≈ 0.21 mM) | 16 (≈ 0.0262 mM)
CCCCCCCCCCCCCCCC(=O)N[C@@H](CCCCN)C(=O)N[C@@H](C(N)=O)[C@H](C)O [HB2237, Pal-K-dT-NH2] | 128 to 256 | >2000 | >2000 | >2000
CCCCCCCCCC(=O)N[C@@H](CCCCN)C(=O)N1CCC[C@H]1C(=O)N[C@H](C(N)=O)C(C)C [HB2181, Dec-KPV-NH2] (Decanoyl-Lys-Pro-Val-NH2) | 1000 (≈ 2.02 mM) | >2000 | >2000 | >2000
CCCCCCCCCCCC(=O)N[C@@H](CCCCN)C(=O)N1CCC[C@H]1C(=O)N[C@H](C(N)=O)C(C)C [HB2190, Lauroyl-KPV-NH2] (Lauroyl-Lys-Pro-Val-NH2) | 64 (≈ 0.122 mM) | >2000 | 250 (≈ 0.477 mM) | 250 (≈ 0.477 mM)
CCCCCCCCCCCCCCCC(=O)N1CCC[C@@H]1C(=O)N[C@@H](CO)C(N)=O [HB2207, Pal-dPS-NH2] (Palmitoyl-[dP]-Ser-NH2) | 32 (≈ 0.0728 mM) | >2000 | >2000 | >2000
CCCCCCCCCCCCCCCC(=O)N[C@@H](CCCCN)C(=O)N[C@@H](Cc1c[nH]c2ccccc12)C(N)=O [HB2248, Pal-KW-NH2] (Palmitoyl-Lys-Trp-NH2) | >2000 | >2000 | >2000 | >2000
CCCCCCCCCCCCCCCC(=O)N[C@@H](CCCCN)C(=O)N[C@H](C(N)=O)[C@@H](C)O [HB2236, Pal-KT-NH2] | 256 to 1000 | >2000 | >2000 | >2000
CCCCCCCCCCCCCCCC(=O)N[C@@H](CCCCN)C(=O)N1CCC[C@@H]1C(=O)N[C@H](C(N)=O)[C@@H](C)O [HB2200, Pal-K-dPT-NH2] (Palmitoyl-Lys-[dP]-Thr-NH2) | 2 (≈ 0.00344 mM) | 16 (≈ 0.0275 mM) | 64 (≈ 0.11 mM) | 4 (≈ 0.00687 mM)
CCCCCCCCCCC(=O)N[C@@H](CCCCN)C(=O)N1CCC[C@@H]1C(=O)N[C@H](C(N)=O)[C@@H](C)O [HB2196, Undecoyl-KdPT-NH2] (Undecanoyl-Lys-[dP]-Thr-NH2) | 256 to 500 | 1000 (≈ 1.95 mM) | 2000 (≈ 3.91 mM) | 1000 (≈ 1.95 mM)
CCCCCCCCCCCCCC(=O)N[C@@H](CCCCN)C(=O)N1CCC[C@H]1C(=O)N[C@H](C(N)=O)C(C)C [HB2191, Myristoyl-KPV-NH2] (Myristoyl-Lys-Pro-Val-NH2) | 16 (≈ 0.029 mM) | 250 (≈ 0.453 mM) | 500 (≈ 0.906 mM) | 250 (≈ 0.453 mM)
CCCCCCCC(=O)N[C@@H](CCCCN)C(=O)N1CCC[C@H]1C(=O)N[C@H](C(N)=O)C(C)C [HB2188, Octanoyl-KPV-NH2] (Octanoyl-Lys-Pro-Val-NH2) | >2000 | >2000 | >2000 | >2000
CCCCCCCCCCCCCCCC(=O)N[C@@H](CCCCN)C(=O)N[C@H](C(N)=O)C(C)C [HB2239, Pal-KV-NH2] (Palmitoyl-Lys-Val-NH2) | >2000 | >2000 | >2000 | >2000
CCCCCCCCCCCCCCCC(=O)N1CCC[C@H]1C(=O)N[C@H](C(N)=O)C(C)C [HB2205, Pal-PV-NH2] (Palmitoyl-Pro-Val-NH2) | >2000 | >2000 | >2000 | >2000
CCCCCCCCCCCCCCCC(=O)N1CCC[C@H]1C(=O)N[C@@H](CCCCN)C(N)=O [HB2251, Pal-PK-NH2] (Palmitoyl-Pro-Lys-NH2) | 4 to 16 | 128 (≈ 0.266 mM) | 2000 (≈ 4.16 mM) | 128 (≈ 0.266 mM)
CCCCCCCCCCCCCC(=O)N[C@@H](CCCCN)C(=O)N1CCC[C@@H]1C(=O)N[C@H](C(N)=O)[C@@H](C)O [HB2198, Myristoyl-KdPT-NH2] (Myristoyl-Lys-[dP]-Thr-NH2) | 8 to 16 | 64 (≈ 0.116 mM) | 128 (≈ 0.231 mM) | 64 (≈ 0.116 mM)
CCCCCCCCCCCCCCCC(=O)N[C@@H](CCCCN)C(=O)N1CCC[C@@H]1C(=O)O [HB2256, Pal-K-dP-OH] (Palmitoyl-Lys-[dP]-OH) | >2000 | >2000 | >2000 | >2000
CCCCCCCCCCCCCCCC(=O)N[C@@H](CCCCN)C(=O)N[C@@H](CO)C(N)=O [HB2245, Pal-KS-NH2] | 128 (≈ 0.272 mM) | >2000 | >2000 | 1000 (≈ 2.12 mM)
CCCCCCCCCCCCCCCC(=O)N[C@@H](CCCCN)C(=O)N[C@@H](CCCCN)C(N)=O [HB2238, Pal-KK-NH2] | – | 16 (≈ 0.0313 mM) | 2 (≈ 0.00391 mM) | 4 (≈ 0.00782 mM)
CCCCCCCCCCCCCCCC(=O)N[C@@H](CCCCN)C(=O)N[C@@H](CCCCN)C(=O)O [HB2258, Pal-KK-OH] | 1 to 4 | 64 (≈ 0.125 mM) | 32 (≈ 0.0624 mM) | 16 (≈ 0.0312 mM)
CCCCCCCCCC(=O)N[C@@H](CCCCN)C(=O)N1CCC[C@@H]1C(=O)N[C@H](C(=O)O)[C@@H](C)O [HB2183, Dec-KdPT-OH] (Decanoyl-Lys-[dP]-Thr-OH) | >2000 | >2000 | >2000 | >2000
CCCCCCCCCCCCCCCC(=O)N[C@@H](CCCCN)C(=O)N[C@@H](CC(=O)O)C(N)=O [HB2252, Pal-KD-NH2] (Palmitoyl-Lys-Asp-NH2) | – | >2000 | >2000 | >2000
CCCCCCCCCCC(=O)N[C@@H](CCCCN)C(=O)N1CCC[C@H]1C(=O)N[C@H](C(N)=O)C(C)C [HB2189, Undecoyl-KPV-NH2] (Undecanoyl-Lys-Pro-Val-NH2) | 256 to 500 | >2000 | 2000 (≈ 3.92 mM) | 1000 (≈ 1.96 mM)
CCCCCCCCCCCCCCCC(=O)N[C@@H](CCCCN)C(=O)N[C@@H](Cc1ccccc1)C(N)=O [HB2241, Pal-KF-NH2] | >2000 | >2000 | >2000 | >2000
CCCCCCCCCC(=O)N[C@@H](CCCCN)C(=O)N1CCC[C@H]1C(=O)N[C@H](C(=O)O)C(C)C [HB2185, Dec-KPV-OH] (Decanoyl-Lys-Pro-Val-OH) | >2000 | >2000 | >2000 | >2000
CCCCCCCCCC(=O)N[C@@H](CCCCN)C(=O)N1CCC[C@@H]1C(=O)N[C@H](C(N)=O)[C@@H](C)O [HB2179, Dec-K-dPT-NH2] (Decanoyl-Lys-[dP]-Thr-NH2) | >2000 | >2000 | >2000 | >2000
